According to PubChem BioAssay AID328 (DTP/NCI, 2004):
Toxic doses and inconclusive results are not listed.

System: BDF1 mice, P388 leukemia ip, median survival T/C
Assay: NCI In Vivo Anticancer Drug Screen. Data for tumor model P388 Leukemia (intraperitoneal) in B6D2F1 (BDF1) mice
Settings: endpoint: median survival time, higher = longer survival
Procedure, shortened: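 Vehicle-dosed animals serve as the reference; survival of compound-dosed, tumour-implanted mice is divided by it.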

For CC[C@]1(O)C[C@H]2CN(CCc3c([nH]c4ccccc34)[C@@](C(=O)OC)(c3cc4c(cc3OC)N(C)[C@H]3[C@@](O)(C(=O)OC)[C@H](OC(C)=O)[C@]5(CC)C=CCN6CC[C@]43[C@@H]65)C2)C1, the T/C (dose: 0.03 mg/kg/injection, schedule: Q03HX024 (ip), vehicle: saline) was 185 % of control, the T/C (dose: 0.06 mg/kg/injection, schedule: Q03HX016 (ip), vehicle: saline) was 162 % of control and the T/C (dose: 0.12 mg/kg/injection, schedule: Q01DX009 (ip), vehicle: saline) was 166 % of control. The T/C (dose: 0.12 mg/kg/injection, schedule: Q01DX009 (ip), vehicle: water) was 252 % of control, the T/C (dose: 0.12 mg/kg/injection, schedule: Q03HX016 (ip), vehicle: saline) was 222 % of control and the T/C (dose: 0.12 mg/kg/injection, schedule: Q03HX024 (ip), vehicle: saline) was 222 % of control. The T/C (dose: 0.25 mg/kg/injection, schedule: Q01DX009 (ip), vehicle: saline) was 185 % of control, the T/C (dose: 0.25 mg/kg/injection, schedule: Q01DX009 (ip), vehicle: water) was 240 % of control and the T/C (dose: 0.25 mg/kg/injection, schedule: Q01DX010 (ip), vehicle: water) was 209 % of control. For the same compound, the T/C (dose: 0.25 mg/kg/injection, schedule: Q03HX008 (ip), vehicle: saline) was 185 % of control, the T/C (dose: 0.25 mg/kg/injection, schedule: Q03HX016 (ip), vehicle: saline) was 214 % of control and the T/C (dose: 0.25 mg/kg/injection, schedule: Q04DX003 (ip), vehicle: saline) was 166 % of control. For the same compound, the T/C (dose: 0.5 mg/kg/injection, schedule: Q01DX009 (ip), vehicle: saline) was 214 % of control, the T/C (dose: 0.5 mg/kg/injection, schedule: Q01DX009 (ip), vehicle: water) was 222 % of control and the T/C (dose: 0.5 mg/kg/injection, schedule: Q01DX010 (ip), vehicle: water) was 195 % of control. For the same compound, the T/C (dose: 0.5 mg/kg/injection, schedule: Q04DX003 (ip), vehicle: saline) was 196 % of control, the T/C (dose: 0.5 mg/kg/injection, schedule: Q08DX002 (ip), vehicle: saline) was 170 % of control and the T/C (dose: 0.65 mg/kg/injection, schedule: Q04DX003 (ip), vehicle: saline) was 200 % of control. For the same compound, the T/C (dose: 1.0 mg/kg/injection, schedule: Q01DX009 (ip), vehicle: saline) was 92 % of control, the T/C (dose: 1.0 mg/kg/injection, schedule: Q03HX008 (ip), vehicle: saline) was 200 % of control and the T/C (dose: 1.0 mg/kg/injection, schedule: Q03HX016 (ip), vehicle: saline) was 96 % of control. The T/C (dose: 1.0 mg/kg/injection, schedule: Q04DX003 (ip), vehicle: saline) was 214 % of control, the T/C (dose: 1.0 mg/kg/injection, schedule: Q08DX002 (ip), vehicle: saline) was 188 % of control and the T/C (dose: 1.08 mg/kg/injection, schedule: Q04DX003 (ip), vehicle: saline) was 193 % of control. The T/C (dose: 1.8 mg/kg/injection, schedule: Q04DX003 (ip), vehicle: saline) was 234 % of control, the T/C (dose: 2.0 mg/kg/injection, schedule: Q01DX001 (ip), vehicle: saline) was 162 % of control and the T/C (dose: 2.0 mg/kg/injection, schedule: Q01DX001 (ip), vehicle: water) was 150 % of control. The T/C (dose: 2.0 mg/kg/injection, schedule: Q04DX003 (ip), vehicle: saline) was 96 % of control, the T/C (dose: 2.0 mg/kg/injection, schedule: Q08DX002 (ip), vehicle: saline) was 214 % of control and the T/C (dose: 3.0 mg/kg/injection, schedule: Q04DX003 (ip), vehicle: saline) was 95 % of control. The T/C (dose: 4.0 mg/kg/injection, schedule: Q01DX001 (ip), vehicle: saline) was 185 % of control, the T/C (dose: 4.0 mg/kg/injection, schedule: Q01DX001 (ip), vehicle: water) was 161 % of control and the T/C (dose: 4.0 mg/kg/injection, schedule: Q08DX002 (ip), vehicle: saline) was 100 % of control. The T/C (dose: 8.0 mg/kg/injection, schedule: Q01DX001 (ip), vehicle: saline) was 177 % of control, the T/C (dose: 8.0 mg/kg/injection, schedule: Q08DX002 (ip), vehicle: saline) was 96 % of control and the T/C (dose: 16.0 mg/kg/injection, schedule: Q01DX001 (ip), vehicle: saline) was 188 % of control. For the same compound, the T/C (dose: 625.0 micrograms/kg/injection, schedule: Q04DX003 (ip), vehicle: saline) was 200 % of control, the T/C (dose: 648.0 micrograms/kg/injection, schedule: Q04DX003 (ip), vehicle: saline) was 180 % of control and the T/C (dose: 1080.0 micrograms/kg/injection, schedule: Q04DX003 (ip), vehicle: saline) was 195 % of control. For the same compound, the T/C (dose: 1250.0 micrograms/kg/injection, schedule: Q04DX003 (ip), vehicle: saline) was 238 % of control, the T/C (dose: 1800.0 micrograms/kg/injection, schedule: Q04DX003 (ip), vehicle: saline) was 190 % of control and the T/C (dose: 2500.0 micrograms/kg/injection, schedule: Q04DX003 (ip), vehicle: saline) was 230 % of control.
